Assays:
[1] = system: heart muscle cells (2D culture); test: Cardiotoxic effect on 2D primary heart muscle cell culture; format: cell-based, Swiss Webster mice; conditions: heart muscle cell monolayers, 72 h, up to 500 µM; read-out: Toxicity 2D Culture (CC50)
Experimental: (§1) Primary heart muscle cell cultures were obtained from fetuses of female Swiss Webster mice, as previously described. After heart removal and ventricle fragmentation, tissue fragments were dissociated in a trypsin and collagenase type II (Worthington Biochemical Corporation, Lakewood, USA) dissociation solution. For two-dimensional (2D) cultures, the isolated cardiac cells were seeded at a density of 5 × 10^4 cells/well in gelatin (0.1%)-coated 96-well white culture plates. Three-dimensional (3D) cardiac spheroids were obtained after seeding isolated heart muscle cells at a density of 2.5 × 10^4 cells/well in an agarose (1%)-coated 96-well U-bottom plate, as described in [35]. Heart muscle cells cultures were cultivated in Dulbecco’s modified Eagle medium (DMEM) supplemented with 7% FBS, 2.5 mM CaCl2, 2% embryo extract, and 1 mM L-glutamin and maintained at 37 °C in a humidified atmosphere of 5% CO2. All procedures with animals were approved by the Animal Care and Use Committee at the Oswaldo Cruz Institute (license L-017/2022).
(§2) The toxic effect of the triazole series was evaluated on VERO cell monolayers. After seeding for 24 hours, VERO cells were treated for 72 h at 37 °C with the 1,2,3-triazole derivatives and Bz, the reference drug, with a range of concentration from 15.62 to 500 µM. Controls were performed with a non-toxic concentration of dimethyl sulfoxide (DMSO; ≤0.1%) used in the experimental assays. Cell viability was determined by measuring ATP level using a CellTiter Glo kit. The luminescence read was performed using a Glomax microplate reader (Promega Corporation, Madison, WI, EUA). The cytotoxicity concentration 50 (CC50), the drug concentration that reduces cell viability by 50%, was calculated using linear regression. […] Cultures were exposed for 72 h to compound concentrations up to 500 µM, following the protocol mentioned above. At least 3 independent assays were performed in duplicate.

[2] = system: VERO cells; test: Cytotoxicity on VERO cell monolayers (CellTiter Glo, 72 h); format: cell-based; conditions: ATP level
Experimental: as §2, with “VERO cells (Rio de Janeiro Cell Bank code 0245) were cultivated in RPMI 1640 medium supplemented with 10% fetal bovine serum (FBS) at 37 °C in a humidified atmosphere of 5% CO2. Confluent monolayers were dissociated with trypsin-EDTA solution (0.025%), and isolated cells were seeded on culture plates or flasks, depending on the experimental assay. The VERO cell cultures were used in cytotoxicity and phenotypic screening assays and for obtaining culture-derived trypomastigotes. The toxic” for “The toxic”

[3] = system: 3D cardiac microtissue (heart muscle cells); test: Cardiotoxic effect on 3D cardiac spheroids; format: cell-based, Swiss Webster mice; conditions: 72 h, up to 500 µM, read-out: Toxicity 3D Culture (CC50)
Experimental: as §1, §2

[4] = Cardiotoxic effect on 2D primary heart muscle cell culture; format: cell-based, Swiss Webster mice; conditions: Swiss Webster, mouse, primary fetal heart muscle cells, 2D monolayer culture, heart muscle cell monolayers, up to 500 µM, read-out: Toxicity 2D Culture (CC50)
Experimental: as §1, §2

[5] = Cytotoxicity on VERO cell monolayers (CellTiter Glo, 72 h); format: cell-based; conditions: African green monkey, VERO cell monolayers, ATP level, read-out: Cytotoxicity VERO Cells CC50
Experimental: as §2, with “VERO cells (Rio de Janeiro Cell Bank code 0245) were cultivated in RPMI 1640 medium supplemented with 10% fetal bovine serum (FBS) at 37 °C in a humidified atmosphere of 5% CO2. Confluent monolayers were dissociated with trypsin-EDTA solution (0.025%), and isolated cells were seeded on culture plates or flasks, depending on the experimental assay. The VERO cell cultures were used in cytotoxicity and phenotypic screening assays and for obtaining culture-derived trypomastigotes. The toxic” for “The toxic”

[6] = Cardiotoxic effect on 3D cardiac spheroids; format: cell-based, Swiss Webster mice; conditions: Swiss Webster, mouse, 3D cardiac spheroids of primary fetal heart muscle cells, 3D cardiac microtissue, up to 500 µM, read-out: Toxicity 3D Culture (CC50)
Experimental: as §1, §2

Compound	CC50 [1] [µM]	CC50 [2] [µM]	CC50 [3] [µM]	CC50 at 72 h [4] [µM]	CC50 at 72 h [5] [µM]	CC50 at 72 h [6] [µM]
4-Phenyl-1-(m-tolyl)-1H-1,2,3-triazole [Triazole 1f]	111 ± 10.1	86.8 ± 2.73	> 500	–	–	–
COc1ccc(-n2cc(-c3ccccc3)nn2)cc1 [Triazole 1d, 1-(4-Methoxyphenyl)-4-phenyl-1H-1,2,3-triazole]	–	–	–	> 500	> 500	> 500
c1ccc(-c2cn(-c3ccccc3)nn2)cc1 [Triazole 1g, 1-(4-Diphenyl)-1H-1,2,3-triazole]	–	–	–	> 500	> 500	> 500

From paper PMC10525445, “Antitrypanosomal Activity of 1,2,3-Triazole-Based Hybrids Evaluated Using In Vitro Preclinical Translational Models” (Biology, 2023)
